Measured values published in ChEMBL document CHEMBL3046366, “Inhibitory effect of curcumin analogs on tissue factor procoagulant activity and their preliminary structureactivity relationships” (Med Chem Res, 2013).

Tests used:
[1] = biological target: T1, Tissue factor (Homo sapiens, UniProt P13726); test: Inhibition of tissue factor in Homo sapiens (human) THP1-cells using factor 10a chromogenic substrate assessed as inhibition of LPS-iduced procoagulant activity incubated for 1 hr prior to LPS-challenge measured after 5 hr by spectrophotometric analysis; type: cell-based; settings: thp-1
[2] = biological target: T1, Tissue factor; test: Ratio of curcumin IC50 to compound IC50 for tissue factor in LPS-induced Homo sapiens (human) THP1 cells; type: cell-based; settings: THP-1
[3] = Inhibition of tissue factor in Homo sapiens (human) THP1-cells using factor 10a chromogenic substrate assessed as inhibition of LPS-iduced procoagulant activity incubated for 1 hr prior to LPS-challenge measured after 5 hr by spectrophotometric analysis; settings: thp-1

T1 sequence (P13726 whole entry): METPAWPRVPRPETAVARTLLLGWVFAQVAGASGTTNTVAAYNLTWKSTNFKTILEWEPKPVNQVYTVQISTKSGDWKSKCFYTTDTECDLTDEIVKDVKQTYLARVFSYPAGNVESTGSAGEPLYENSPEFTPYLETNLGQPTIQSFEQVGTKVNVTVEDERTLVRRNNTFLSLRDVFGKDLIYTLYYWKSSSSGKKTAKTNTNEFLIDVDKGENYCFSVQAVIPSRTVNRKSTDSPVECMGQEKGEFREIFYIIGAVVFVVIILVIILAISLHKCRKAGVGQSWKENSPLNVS

Structure (SMILES) | IC50 [1] [nM] | Ratio IC50 [2] | IC50 [3] [nM]
COc1cc(/C=C2\CCC/C(=C\c3ccc(O)c(OC)c3)C2=O)ccc1O [CYCLOVALONE] | > 200 | – | –
COc1ccc(C(=O)/C=C/c2ccc(O)cc2)cc1 | 142 | – | –
COc1cc(/C=C/C(=O)/C=C/c2ccc(O)c(OC)c2)ccc1O | > 200 | – | –
COc1ccc(/C=C2\CCC/C(=C\c3ccc(OC)cc3)C2=O)cc1 | > 200 | – | –
COc1cc(/C=C/C(=O)CC(=O)/C=C/c2ccc(O)c(OC)c2)ccc1O [CURCUMIN] | – | – | 200
COc1ccc(/C=C/C(=O)c2ccc(OC)cc2)cc1 [4,4'-DIMETHOXYCHALCONE] | 15.4 | – | –

The next lines start with the values.

IC50 [1] [nM] | Ratio IC50 [2] | IC50 [3] [nM] | Structure (SMILES)
0.12 | 10000 | – | O=C(/C=C/c1ccccc1)c1ccc(O)cc1 [4'-HYDROXYCHALCONE]
2.58 | – | – | O=C(/C=C/c1ccc(O)cc1)/C=C/c1ccc(O)cc1
0.26 | – | – | O=C1/C(=C/c2ccccc2)CCC/C1=C\c1ccccc1 [2,6-DIBENZYLIDENECYCLOHEXANONE]
13.4 | – | – | COc1ccc(/C=C/C(=O)/C=C/c2ccc(OC)cc2)cc1
0.96 | – | – | O=C(/C=C/c1ccc(O)cc1)c1ccc(O)cc1 [4,4'-DIHYDROXYCHALCONE]
0.94 | – | – | O=C1/C(=C/c2ccc(O)cc2)CCC/C1=C\c1ccc(O)cc1
0.053 | 10000 | – | O=C(/C=C/c1ccccc1)/C=C/c1ccccc1
